Test results taken from patent US20230381142A1, “ANTILEISHMANIAL COMPOUNDS, COMPOSITIONS AND USE THEREOF” (TRUSTEES OF BOSTON UNIVERSITY, priority 2022, published 2023).

System: L. donovani intracellular amastigotes in B10R cells
Experiment: UCSD L. donovani infection assay (Assay Conditions D)
Type: cell-based
Details: B10R cells
Protocol: (§1) Assay Conditions D: B10R cells (CVCL_0155) were seeded at 300 cells/well, and L. donovani WT promastigotes in stationary phase (7th day after passage) were added at 6,000 parasites/well (ratio of 20 parasites/cell). Both cells and parasites were seeded in DMEM High-Glucose medium (Gibco, cat. no. 11995065) containing 5% Fetal Bovine Serum (Sigma-Aldrich, cat. no. F2442) and 1% Penicillin-Streptomycin (Gibco, cat. no. 15140122). Cells and parasites were incubated in the presence of the compounds for 72 h at 37° C. and 5% C02. Plates were then fixed with 4% formaldehyde solution for at least 1 h, then washed with 1×PBS and stained with 5 μg/mL DAPI. Plates were read using an ImageXpress microscope (Molecular Devices) and analyzed by MetaXpress software (Molecular Devices) using a custom module optimized for this assay. […] Compounds were tested in a 10-point 2-fold serial dilution in 3 technical replicates, and 2 biological replicates. After 72 h, plates were fixed and stained with DAPI as described above. Images were acquired on an ImageXpress microscope, and analyzed using the MetaXpress custom module.
as §1, with “Compounds were obtained as 0.2 μmoles of dried film for primary single point screening. Each compound was diluted in DMSO to 10 μM final testing concentration. These compounds were tested in 2 biological replicates. The compounds were pre-spotted onto 384-well assay plates in single concentration.” for “Assay Conditions D:”, “CO2.” for “C02.”, “module. The DRCs were plotted, half-effective concentration (EC50) and half-cytotoxic concentration (CC50) were calculated using GraphPad Prism Software, version 6.05 (GraphPad Software, San Diego, CA).” for “module.”

Cc1ccc(C2c3c(CC(C)C)n[nH]c3C(=O)N2c2ccc3ncnn3c2)cc1 (centres unmarked) [BUCMD00156]
L. donovani amastigotes EC75 (μM, B10R cells): >10 µM

CC(C)Cc1n[nH]c2c1C(C1CCCCC1)N(c1ccc3ncnn3c1)C2=O (centres unmarked) [BUCMD00157]
L. donovani amastigotes EC75 (μM, B10R cells): >10 µM

CC(C)Cc1n[nH]c2c1C(c1cccs1)N(c1ccc3ncnn3c1)C2=O (centres unmarked) [BUCMD00158]
L. donovani amastigotes EC75 (μM, B10R cells): >10 µM

COc1cccc(C2c3c(CC(C)C)n[nH]c3C(=O)N2c2ccc3ncnn3c2)c1 (centres unmarked) [BUCMD00159]
L. donovani amastigotes EC75 (μM, B10R cells): >10 µM

CC(C)Cc1n[nH]c2c1C(c1ccc(F)cc1Br)N(c1ccc3ncnn3c1)C2=O (centres unmarked) [BUCMD00160]
L. donovani amastigotes EC75 (μM, B10R cells): >10 µM

CC(C)Cc1n[nH]c2c1C(c1cc(C(F)(F)F)ccc1Br)N(c1ccc3ncnn3c1)C2=O (centres unmarked) [BUCMD00161]
L. donovani amastigotes EC75 (μM, B10R cells): >10 µM

COc1cc(N2C(=O)c3[nH]nc(CC(C)C)c3C2c2ccc(F)cc2)ccn1 (centres unmarked) [BUCMD00163]
L. donovani amastigotes EC75 (μM, B10R cells): >10 µM

COc1cc(N2C(=O)c3[nH]nc(CC(C)C)c3C2c2ccc(F)cc2)ccc1Br (centres unmarked) [BUCMD00164]
L. donovani amastigotes EC75 (μM, B10R cells): >10 µM

COc1cc(OC)cc(N2C(=O)c3[nH]nc(CC(C)C)c3C2c2ccc(F)cc2)c1 (centres unmarked) [BUCMD00165]
L. donovani amastigotes EC75 (μM, B10R cells): >10 µM

Cc1cccnc1N1C(=O)c2[nH]nc(CC(C)C)c2C1c1ccc(F)cc1 (centres unmarked) [BUCMD00166]
L. donovani amastigotes EC75 (μM, B10R cells): >10 µM

Cc1cc(Br)cnc1N1C(=O)c2[nH]nc(CC(C)C)c2C1c1ccc(F)cc1 (centres unmarked) [BUCMD00167]
L. donovani amastigotes EC75 (μM, B10R cells): >10 µM

Cc1cc(Cl)cnc1N1C(=O)c2[nH]nc(CC(C)C)c2C1c1ccc(F)cc1 (centres unmarked) [BUCMD00168]
L. donovani amastigotes EC75 (μM, B10R cells): >10 µM

Cc1cc(N2C(=O)c3[nH]nc(CC(C)C)c3C2c2ccc(F)cc2)n(C)n1 (centres unmarked) [BUCMD00169]
L. donovani amastigotes EC75 (μM, B10R cells): >10 µM

CC(C)Cc1n[nH]c2c1C(c1ccc(F)cc1)N(c1cc(C3CC3)[nH]n1)C2=O (centres unmarked) [BUCMD00170]
L. donovani amastigotes EC75 (μM, B10R cells): >10 µM

CC(C)Cc1n[nH]c2c1C(c1ccc(F)cc1)N(c1cc(C(C)C)nn1C)C2=O (centres unmarked) [BUCMD00171]
L. donovani amastigotes EC75 (μM, B10R cells): >10 µM

CC(C)Cc1n[nH]c2c1C(c1ccc(F)cc1)N(c1cncc(Br)c1)C2=O (centres unmarked) [BUCMD00172]
L. donovani amastigotes EC75 (μM, B10R cells): >10 µM

Cc1ccnc(N2C(=O)c3[nH]nc(CC(C)C)c3C2c2ccc(F)cc2)c1 (centres unmarked) [BUCMD00173]
L. donovani amastigotes EC75 (μM, B10R cells): >10 µM

Cc1ccc(N2C(=O)c3[nH]nc(CC(C)C)c3C2c2ccc(F)cc2)nc1 (centres unmarked) [BUCMD00174]
L. donovani amastigotes EC75 (μM, B10R cells): >10 µM

Cc1cccc(N2C(=O)c3[nH]nc(CC(C)C)c3C2c2ccc(F)cc2)n1 (centres unmarked) [BUCMD00175]
L. donovani amastigotes EC75 (μM, B10R cells): >10 µM

COc1ccc(N2C(=O)c3[nH]nc(CC(C)C)c3C2c2ccc(Br)cc2OC)cn1 (centres unmarked) [BUCMD00176]
L. donovani amastigotes EC75 (μM, B10R cells): >10 µM

COc1ccc(OC)c(N2C(=O)c3[nH]nc(CC(C)C)c3C2c2ccc(OC)nc2)c1 (centres unmarked) [BUCMD00177]
L. donovani amastigotes EC75 (μM, B10R cells): >10 µM

CCc1ccc(C2c3c(CC(C)C)n[nH]c3C(=O)N2c2ccc(F)c(OC)c2)cn1 (centres unmarked) [BUCMD00178]
L. donovani amastigotes EC75 (μM, B10R cells): >10 µM

COc1cc(N2C(=O)c3[nH]nc(CC(C)C)c3C2c2c(C)nn(C)c2Cl)ccc1Br (centres unmarked) [BUCMD00179]
L. donovani amastigotes EC75 (μM, B10R cells): >10 µM

COc1cc(N2C(=O)c3[nH]nc(CC(C)C)c3C2c2c(C)nn(C)c2Cl)ccc1F (centres unmarked) [BUCMD00180]
L. donovani amastigotes EC75 (μM, B10R cells): >10 µM

COc1cc(N2C(=O)c3[nH]nc(CC(C)C)c3C2c2cncc(Br)c2)ccn1 (centres unmarked) [BUCMD00181]
L. donovani amastigotes EC75 (μM, B10R cells): >10 µM

COc1ccc(OC)c(N2C(=O)c3[nH]nc(CC(C)C)c3C2c2cncc(Br)c2)c1 (centres unmarked) [BUCMD00182]
L. donovani amastigotes EC75 (μM, B10R cells): >10 µM

COc1cc(N2C(=O)c3[nH]nc(CC(C)C)c3C2c2cncc(Br)c2)ccc1F (centres unmarked) [BUCMD00183]
L. donovani amastigotes EC75 (μM, B10R cells): >10 µM

COc1cc(OC)cc(N2C(=O)c3[nH]nc(CC(C)C)c3C2c2cncc(Br)c2)c1 (centres unmarked) [BUCMD00184]
L. donovani amastigotes EC75 (μM, B10R cells): >10 µM

COc1cccc(N2C(=O)c3[nH]nc(CC(C)C)c3C2c2cncc(Br)c2)c1 (centres unmarked) [BUCMD00185]
L. donovani amastigotes EC75 (μM, B10R cells): >10 µM

COc1cc(N2C(=O)c3[nH]nc(CC(C)C)c3C2c2ccc(F)cc2C)ccn1 (centres unmarked) [BUCMD00186]
L. donovani amastigotes EC75 (μM, B10R cells): >10 µM

COc1cc(N2C(=O)c3[nH]nc(CC(C)C)c3C2c2cc(Br)ccc2F)ccn1 (centres unmarked) [BUCMD00187]
L. donovani amastigotes EC75 (μM, B10R cells): >10 µM

COc1cc(N2C(=O)c3[nH]nc(CC(C)C)c3C2c2ccc(F)cc2F)ccn1 (centres unmarked) [BUCMD00188]
L. donovani amastigotes EC75 (μM, B10R cells): >10 µM

COc1ncccc1C1c2c(CC(C)C)n[nH]c2C(=O)N1c1ncccc1C (centres unmarked) [BUCMD00189]
L. donovani amastigotes EC75 (μM, B10R cells): >10 µM

COc1ncccc1C1c2c(CC(C)C)n[nH]c2C(=O)N1c1ncc(Br)cc1C (centres unmarked) [BUCMD00190]
L. donovani amastigotes EC75 (μM, B10R cells): >10 µM

COc1ncccc1C1c2c(CC(C)C)n[nH]c2C(=O)N1c1ncc(Cl)cc1C (centres unmarked) [BUCMD00191]
L. donovani amastigotes EC75 (μM, B10R cells): >10 µM

Cc1cc(N2C(=O)c3[nH]nc(CC(C)C)c3C2c2ccc(Br)cc2)n(C)n1 (centres unmarked) [BUCMD00192]
L. donovani amastigotes EC75 (μM, B10R cells): >10 µM

Cc1cc(N2C(=O)c3[nH]nc(CC(C)C)c3C2c2ccc(Cl)cc2)n(C)n1 (centres unmarked) [BUCMD00193]
L. donovani amastigotes EC75 (μM, B10R cells): >10 µM

COc1cc(C2c3c(CC(C)C)n[nH]c3C(=O)N2c2cc(C)nn2C)cc(OC)c1Br (centres unmarked) [BUCMD00194]
L. donovani amastigotes EC75 (μM, B10R cells): >10 µM

COc1cc(C2c3c(CC(C)C)n[nH]c3C(=O)N2c2cc(C3CC3)[nH]n2)cc(OC)c1Br (centres unmarked) [BUCMD00195]
L. donovani amastigotes EC75 (μM, B10R cells): >10 µM

COc1ccc(OC)c(C2c3c(CC(C)C)n[nH]c3C(=O)N2c2cncc(Br)c2)c1 (centres unmarked) [BUCMD00196]
L. donovani amastigotes EC75 (μM, B10R cells): >10 µM

COc1ccc(OC)c(C2c3c(CC(C)C)n[nH]c3C(=O)N2c2cc(C)ccn2)c1 (centres unmarked) [BUCMD00197]
L. donovani amastigotes EC75 (μM, B10R cells): >10 µM

COc1ccc(OC)c(C2c3c(CC(C)C)n[nH]c3C(=O)N2c2ccc(C)cn2)c1 (centres unmarked) [BUCMD00198]
L. donovani amastigotes EC75 (μM, B10R cells): >10 µM

COc1ccc(OC)c(C2c3c(CC(C)C)n[nH]c3C(=O)N2c2cccc(C)n2)c1 (centres unmarked) [BUCMD00199]
L. donovani amastigotes EC75 (μM, B10R cells): >10 µM

Cc1ccc(N2C(=O)c3[nH]nc(CC(C)C)c3C2c2ccc(F)cc2Br)cn1 (centres unmarked) [BUCMD00629]
L. donovani amastigotes EC75 (μM, B10R cells): 1.0 µM

Cc1ccc(N2C(=O)c3[nH]nc(CC(C)C)c3C2c2ccc(F)cc2F)cn1 (centres unmarked) [BUCMD00630]
L. donovani amastigotes EC75 (μM, B10R cells): 7.3 µM

Cc1cc(N2C(=O)c3[nH]nc(CC(C)C)c3C2c2ccc(F)cc2Br)ccn1 (centres unmarked) [BUCMD00643]
L. donovani amastigotes EC75 (μM, B10R cells): 1.2 µM

Cc1cc(F)ccc1C1c2c(CC(C)C)n[nH]c2C(=O)N1c1ccn(C)n1 (centres unmarked) [BUCMD00652]
L. donovani amastigotes EC75 (μM, B10R cells): >10 µM

CC(C)Cc1n[nH]c2c1C(c1ccc(Br)cc1F)N(c1ccn(C)n1)C2=O (centres unmarked) [BUCMD00653]
L. donovani amastigotes EC75 (μM, B10R cells): >10 µM

CC(C)Cc1n[nH]c2c1C(c1ccc(F)cc1Cl)N(c1ccn(C)n1)C2=O (centres unmarked) [BUCMD00654]
L. donovani amastigotes EC75 (μM, B10R cells): >10 µM

CC(C)Cc1n[nH]c2c1C(c1ccc(Cl)cc1F)N(c1ccn(C)n1)C2=O (centres unmarked) [BUCMD00655]
L. donovani amastigotes EC75 (μM, B10R cells): >10 µM

CC(C)Cc1n[nH]c2c1C(c1ccccc1Cl)N(c1ccn(C)n1)C2=O (centres unmarked) [BUCMD00656]
L. donovani amastigotes EC75 (μM, B10R cells): >10 µM

Cc1ccccc1C1c2c(CC(C)C)n[nH]c2C(=O)N1c1ccn(C)n1 (centres unmarked) [BUCMD00657]
L. donovani amastigotes EC75 (μM, B10R cells): >10 µM

CC(C)Cc1n[nH]c2c1C(c1ccc(F)cc1Br)N(c1ccn(C)n1)C2=O (centres unmarked) [BUCMD00658]
L. donovani amastigotes EC75 (μM, B10R cells): >10 µM

CC(C)Cc1n[nH]c2c1C(c1ccc(F)cc1F)N(c1ccn(C)n1)C2=O (centres unmarked) [BUCMD00659]
L. donovani amastigotes EC75 (μM, B10R cells): >10 µM

Cc1ccsc1C1c2c(CC(C)C)n[nH]c2C(=O)N1c1ccn(C)n1 (centres unmarked) [BUCMD00660]
L. donovani amastigotes EC75 (μM, B10R cells): >10 µM

CC(C)Cc1n[nH]c2c1C(c1ccccc1C(F)(F)F)N(c1ccn(C)n1)C2=O (centres unmarked) [BUCMD00661]
L. donovani amastigotes EC75 (μM, B10R cells): >10 µM

CC(C)Cc1n[nH]c2c1C(c1sccc1Br)N(c1ccn(C)n1)C2=O (centres unmarked) [BUCMD00662]
L. donovani amastigotes EC75 (μM, B10R cells): >10 µM

CCn1cc(N2C(=O)c3[nH]nc(CC(C)C)c3C2c2ccc(F)cc2C)cn1 (centres unmarked) [BUCMD00663]
L. donovani amastigotes EC75 (μM, B10R cells): 4.0 µM

CCn1cc(N2C(=O)c3[nH]nc(CC(C)C)c3C2c2ccc(Br)cc2F)cn1 (centres unmarked) [BUCMD00664]
L. donovani amastigotes EC75 (μM, B10R cells): >10 µM
